Test results reported in patent US20230372350A1, “ASTROCYTIC TRPA1 CHANNEL INHIBITION AS A NOVEL NEUROPROTECTIVE THERAPEUTIC TARGET IN THE PRODROMAL PHASES OF ALZHEIMER'S DISEASE” (priority 2020, published 2023).

Key:
human forms of TRPA1 = human forms of TRPA1 (Homo sapiens, UniProt O75762); settings: McNamara et al. 2007, read-out: CI50 (the source's name); cited from earlier work
WT control animals = experiment: Chronic intraperitoneal treatment: overall effect on WT control animals; type: in vivo; settings: daily injection from the 14th to the 90th postnatal day
Method: This solution is then diluted to 1 μg/μl in an isotonic solution containing 1% Pluronic F-127 and 0.9% NaCl. The animals are injected daily intraperitoneally at a dose of 5 mg/kg of body mass. Sterile 0.5 ml BD MicroFine syringes with no dead volume, equipped with a 30G (0.3 mm) needle are used for the injections.
The injection is started from the 14th postnatal day (appearance of the expression of the Thy1gene promoter in the hippocampus, triggering the overexpression of Aβ in the APP/PS1-21 murine model)

Chain of human forms of TRPA1 (O75762 whole entry): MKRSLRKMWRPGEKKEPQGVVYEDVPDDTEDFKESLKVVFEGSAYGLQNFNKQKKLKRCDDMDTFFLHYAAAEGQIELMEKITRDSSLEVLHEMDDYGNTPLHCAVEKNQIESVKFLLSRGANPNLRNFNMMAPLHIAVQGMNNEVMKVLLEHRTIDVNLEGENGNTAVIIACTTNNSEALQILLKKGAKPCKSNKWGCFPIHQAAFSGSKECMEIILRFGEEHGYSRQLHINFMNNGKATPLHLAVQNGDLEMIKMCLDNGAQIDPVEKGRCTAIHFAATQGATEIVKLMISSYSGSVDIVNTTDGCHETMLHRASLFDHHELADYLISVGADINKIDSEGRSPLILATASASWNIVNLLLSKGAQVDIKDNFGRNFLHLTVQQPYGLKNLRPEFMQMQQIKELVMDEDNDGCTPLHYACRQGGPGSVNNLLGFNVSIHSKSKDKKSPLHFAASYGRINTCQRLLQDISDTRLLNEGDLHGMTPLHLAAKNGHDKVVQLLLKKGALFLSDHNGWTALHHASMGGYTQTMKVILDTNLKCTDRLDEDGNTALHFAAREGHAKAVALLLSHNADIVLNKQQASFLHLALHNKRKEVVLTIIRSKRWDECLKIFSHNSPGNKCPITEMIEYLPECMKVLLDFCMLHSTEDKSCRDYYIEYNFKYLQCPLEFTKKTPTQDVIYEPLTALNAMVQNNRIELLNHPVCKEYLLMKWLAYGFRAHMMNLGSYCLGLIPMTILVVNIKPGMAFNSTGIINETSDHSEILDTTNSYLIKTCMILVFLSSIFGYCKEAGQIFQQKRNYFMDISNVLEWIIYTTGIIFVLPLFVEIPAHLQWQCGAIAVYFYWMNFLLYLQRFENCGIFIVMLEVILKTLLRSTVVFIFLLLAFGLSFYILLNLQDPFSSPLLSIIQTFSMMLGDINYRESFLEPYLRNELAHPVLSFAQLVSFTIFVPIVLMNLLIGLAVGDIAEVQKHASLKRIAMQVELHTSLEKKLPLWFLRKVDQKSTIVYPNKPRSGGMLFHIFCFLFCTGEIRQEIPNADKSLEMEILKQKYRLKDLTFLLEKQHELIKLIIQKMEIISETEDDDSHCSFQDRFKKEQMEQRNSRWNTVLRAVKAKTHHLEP

Question: Which results are given for `CC(C)c1ccc(NC(=O)Cn2cnc3c2c(=O)n(C)c(=O)n3C)cc1` [HC030031, 2-(1,3-Dimethyl-2,6-dioxo-1,2,3,6-tetrahydro-7H-purin-7-yl)-N-(4-isopropylphenyl)acetamide]?
Answer: IC50 (human forms of TRPA1): ~6.2 µM; effect at the functional level and at the structural level (WT control animals): no effect
